Source: paper PMC9873282, “Design, synthesis and evaluation of quinoline-O-carbamate derivatives as multifunctional agents for the treatment of Alzheimer’s disease” (Journal of Enzyme Inhibition and Medicinal Chemistry, 2023)
Values joined by “and” are separate entries in the source; they are usually repeats but may differ in a detail not shown here. Equal entries are not always repeated.

How the values were obtained:
[1] = Stability in artificial gastrointestinal fluids; format: in vitro ADME; conditions: 8 h incubation
Procedure: Compound 3f was selected to investigate the stabilities by artificial gastrointestinal conditions and (human and rat) liver microsomes.
• The artificial gastrointestinal fluids were prepared on the basis of the standard method described in China Pharmacopoeia (version 2015). The artificial gastric fluid consisted of HCl (0.045 mol/L) and pepsin (10 g/L), while the artificial intestinal fluid consisted of trypsin (10 g/L) and KH2PO4 (6.8 g/L), and the pH was adjusted to 6.8 with 0.1 mol/L NaOH. The blank gastric fluid and blank intestinal fluid was similar as described above without pepsin and trypsin. Compound 3f (1 mg/mL, n = 3) was incubated with artificial gastric fluid、blank gastric fluid 、artificial intestinal fluid and blank intestinal fluid at 37 ◦C, and 600 µL methanol was then added into the reagent to stop reaction at time of 0, 0.5, 1, 2, 3, 4, and 8 h. […] The data were processed by GraphPad Prism 8.0 software.
UPLC-MS/MS method: Targeted analytes were separated using a Agilent xbridge aq C18 column (4.6 mm × 250 mm, 5 µm, USA) at a flow rate of 0.4 ml/min. The mobile phase consisted of solvent A (deionised water with 0.1% formic acid) and solvent B (acetonitrile with 0.1% formic acid). The gradient elution program was as follows: 0–0.5 min (10% B); 0.5–2.5 min (10–98% B); 2.5–3.5 min (98% B); 3.5–3.6 min ([…]); 3.6–5.0 min (10% B). The autosampler temperature was maintained at 12 °C and the injection volume was set at 1 µL.
The mass spectrometer was operated in positive ion mode through multiple-reaction monitoring. The parameters of the mass spectrometer were as follows: capillary ionisation voltage of 3500 V: source gas temperature of 300 °C gas flow of 11 L/min.

hBuChE [2] = biological target: T1, hBuChE (Homo sapiens, UniProt P06276); experiment: hBuChE reversibility of inhibition (recovery after dilution); format: biochemical
T1 construct: hBuChE, human serum BuChE; purchased Sigma Aldrich; host or cells: human serum (natural source)

hAChE = biological target: T2, hAChE (Homo sapiens, UniProt P22303); experiment: biochemical; conditions: from human erythrocytes; read-out: IC50 ± SD hAChE
T2 construct: hAChE, from human erythrocytes AChE; purchased Sigma Aldrich; host or cells: human erythrocytes (natural source)
Procedure: (§1) Acetylcholinesterase (eeAChE, from the electric eel; hAChE, from human erythrocytes AChE), butyrylcholinesterase (eqBuChE, from equine serum; hBuChE, human serum BuChE), 5,5′-dithiobis-2-nitrobenzoic acid (Ellman’s reagent, DTNB), acetylthiocholine chloride (ATC), and butyrylthiocholine chloride (BTC) were purchased form Sigma Aldrich. The determination of AChE and BuChE inhibitory potency of the synthesised compounds were evaluated by Ellman assay, the detailed procedure referred to our previous work[26]^,[27].

hBuChE [3] = biological target: T1, hBuChE; experiment: biochemical
Procedure: as §1

eeAChE [4] = biological target: T3, eeAChE (Electrophorus electricus, UniProt O42275); experiment: Enzyme kinetic study (Lineweaver-Burk) of eeAChE inhibition; format: biochemical, electric eel
T3 construct: eeAChE, from the electric eel; purchased Sigma Aldrich; host or cells: electric eel (natural source)
Text: In order to determine the mechanism of quinoline-O-carbamate derivatives, the representative compound 3f was chose to perform Lineweaver-Burk double reciprocal plot by plotting the initial velocities of the substrate at y-axis and increasing concentrations substrate at x-axis[27].
Figure 7. Enzyme kinetic study on the mechanism of eeAChE inhibition by compound 3f. (A) Overlaid Lineweaver-Burk reciprocal plots of AChE initial velocity at increasing acetylthiocholine concentration in the absence and in the presence of 3f were determined.

[5] = test system: Aβ25-35-induced PC12 cells injury; experiment: Neuroprotective effect on Aβ25-35-induced PC12 cells injury (CCK-8); format: cell-based; conditions: 25 µM Aβ25-35; model cell viability 57.3%
Procedure: The neuroprotective effect of compounds 3a, 3c, 3e, 3f, 3k, 3m, and 3n on Aβ25–35-induced PC12 cells injury were evaluated using CCK-8 assay. […] Furthermore, as shown in Figure 12(B), when PC12 cells were exposed to 25 µM Aβ25-35, the cell viability sharply declined to 57.3% (p < 0.01) compared with untreated group.
• Preparation of Aβ25-35 aggregation. Aβ25-35 was purchased from sigma. 1 mg Aβ25-35 was dissolved in 943 µL of sterilised deionised water to obtain 1 mM stock solution, aliquoted, –20 °C preservation. Removing the appropriate volume in a 48-well plate and incubated in a 37 °C incubator for two days to allow its ageing to accumulate and produce neurotoxicity. After aggregation was completed, the solution was diluted with PBS to get 25 µM solution of Aβ25-35 aggregation. • Neuroprotective effects of compounds on Aβ25-35-induced PC12 cells injury
The PC12 cells during the logarithmic growth phase were digested and centrifuged with pancreatic enzyme solution, the cells were resuspended by adding the prepared media solution, and piped evenly with a pipette to seed in a 96-well cell culture plate (cell concentration adjusted to 2.0 × 10^4 cell·mL^−1). Each well was added 100 µL complete medium was added to each well and incubated at 37 °C and 5% CO2 for 24 h.
After incubation for 24 h, PC12 cells were divided into blank group, control group, Aβ25-35 model group and tested compounds group (5, 10, 20 µM). Then the original medium was discarded, and 100 µL new complete medium were added to PC12 cells, and the tested compounds group was added to 100 µL complete medium containing different concentrations (5, 10, and 20 µM) of tested compounds, incubated for 2 h at 37 °C, 5% CO2 conditions. After incubation for 2 h, 10 µL Aβ25-35 solution was added to the tested compounds groups and model group (the final concentration of Aβ25-35 was 25 µM), and incubated for 24 h at 37 °C, 5% CO2 conditions, 10 µL CCK-8 was added to each well and further incubated for 1 h at 37 °C and 5% CO2. Finally, the OD value was measured at 450 nm using a microplate reader, and each concentration set three wells. The cell survival rate (%) was determined according to the following formula: cell viability (%) = {(ODdrug−ODblank)}/{(ODcontrol−ODblank)}.

eeAChE [6] = biological target: T3, eeAChE; experiment: biochemical; parameters: species or system electric eel; conditions: AChE from electric eel; read-out: IC50 ± SD eeAChE
Procedure: The inhibitory activities of the synthesised compounds against eeAChE (from electric eel) and eqBuChE (from equine serum) were tested by the modified Ellman’s method[26]^,[27]. […] The determination of AChE and BuChE inhibitory potency of the synthesised compounds were evaluated by Ellman assay, the detailed procedure referred to our previous work[26]^,[27].

T1 sequence (P06276 29-602): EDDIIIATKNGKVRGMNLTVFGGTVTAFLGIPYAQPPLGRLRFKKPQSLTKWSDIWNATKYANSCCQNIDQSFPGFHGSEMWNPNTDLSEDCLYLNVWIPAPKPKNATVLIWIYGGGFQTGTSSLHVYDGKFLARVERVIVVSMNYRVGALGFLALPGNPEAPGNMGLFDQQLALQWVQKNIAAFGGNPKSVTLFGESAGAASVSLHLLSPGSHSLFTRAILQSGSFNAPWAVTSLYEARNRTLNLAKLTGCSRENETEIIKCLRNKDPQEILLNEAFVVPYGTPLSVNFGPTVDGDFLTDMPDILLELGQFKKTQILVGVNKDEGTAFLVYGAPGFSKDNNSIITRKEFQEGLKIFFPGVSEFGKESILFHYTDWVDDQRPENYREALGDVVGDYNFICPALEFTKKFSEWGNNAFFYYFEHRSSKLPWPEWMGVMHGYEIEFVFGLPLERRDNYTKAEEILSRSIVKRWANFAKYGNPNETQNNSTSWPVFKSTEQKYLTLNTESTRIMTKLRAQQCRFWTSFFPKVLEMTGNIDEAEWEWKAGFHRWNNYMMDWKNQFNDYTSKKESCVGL
T3 sequence (O42275 24-633): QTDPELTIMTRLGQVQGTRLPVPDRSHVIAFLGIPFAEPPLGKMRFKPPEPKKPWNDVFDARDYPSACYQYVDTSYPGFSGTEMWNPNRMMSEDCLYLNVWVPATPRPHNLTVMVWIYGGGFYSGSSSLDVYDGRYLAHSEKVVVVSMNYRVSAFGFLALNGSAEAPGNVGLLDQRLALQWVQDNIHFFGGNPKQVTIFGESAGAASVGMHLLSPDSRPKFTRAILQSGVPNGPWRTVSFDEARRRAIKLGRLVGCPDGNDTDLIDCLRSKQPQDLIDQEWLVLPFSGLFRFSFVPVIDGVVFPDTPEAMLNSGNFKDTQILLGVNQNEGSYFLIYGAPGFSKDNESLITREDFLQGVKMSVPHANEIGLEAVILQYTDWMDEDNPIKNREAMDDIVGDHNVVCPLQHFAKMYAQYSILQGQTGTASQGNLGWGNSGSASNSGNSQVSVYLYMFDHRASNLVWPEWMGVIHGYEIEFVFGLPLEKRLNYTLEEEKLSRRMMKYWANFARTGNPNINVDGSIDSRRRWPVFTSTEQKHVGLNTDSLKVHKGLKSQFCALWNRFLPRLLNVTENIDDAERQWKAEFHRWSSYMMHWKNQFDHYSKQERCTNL
T2 sequence (P22303 32-617 isoform P22303-2 limits assumed): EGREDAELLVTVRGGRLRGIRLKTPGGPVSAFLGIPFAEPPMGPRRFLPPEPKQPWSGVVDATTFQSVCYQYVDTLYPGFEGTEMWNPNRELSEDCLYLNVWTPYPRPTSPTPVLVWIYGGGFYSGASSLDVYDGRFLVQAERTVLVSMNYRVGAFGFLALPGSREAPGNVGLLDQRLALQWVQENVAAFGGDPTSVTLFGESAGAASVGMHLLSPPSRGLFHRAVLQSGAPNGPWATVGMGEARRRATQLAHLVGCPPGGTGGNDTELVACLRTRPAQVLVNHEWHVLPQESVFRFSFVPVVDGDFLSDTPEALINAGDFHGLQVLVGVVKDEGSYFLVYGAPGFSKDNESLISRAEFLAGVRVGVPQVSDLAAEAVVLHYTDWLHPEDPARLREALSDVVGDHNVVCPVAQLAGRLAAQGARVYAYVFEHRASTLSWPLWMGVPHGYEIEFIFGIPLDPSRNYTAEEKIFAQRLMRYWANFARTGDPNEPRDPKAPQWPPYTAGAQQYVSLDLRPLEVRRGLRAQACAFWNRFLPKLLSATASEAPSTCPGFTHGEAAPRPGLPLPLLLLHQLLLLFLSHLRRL

CCN(CC)C(=O)Oc1cccc2ncccc12 [Compound 3f, Quinolin-5-yl diethylcarbamate]
remaining amount ([1]; artificial gastric fluid): 99.2% | remaining amount ([1]; artificial intestinal fluid): 107.7% | remaining amount ([1]; blank gastric fluid): 102.6% | remaining amount ([1]; blank intestinal fluid): 103.4% | reversibility of hBuChE inhibition (hBuChE [2]): reversible hBuChE inhibitor | hBuChE activity (% control) (hBuChE [2]; 0.1*IC50, diluted): 53.6 % control | hBuChE activity restored (hBuChE [2]; 0.1 × IC50, 120 min): 70.7% | hBuChE activity restored (hBuChE [2]; 0.1 × IC50, 240 min): 95.6% | hBuChE activity (% control) (hBuChE [2]; 1*IC50, diluted): 51.4 % control | hBuChE activity (% control) (hBuChE [2]; 1*IC50, undiluted): 48.8 % control | IC50 (hAChE): 5600 ± 70 nM | IC50 (hBuChE [3]; from human serum, read-out: IC50 ± SD hBuChE): 2340 nM and 2300 nM | SI = IC50 (AChE)/IC50 (BuChE) (hBuChE [3]; hAChE/hBuChE): 2.4 | type of AChE inhibition (eeAChE [4]; Lineweaver-Burk plot): mixed-type | Ki (eeAChE [4]; replot of slope versus concentration, read-out: inhibition constant Ki): 1730 nM | neuroprotective effect on Aβ25-35-induced PC12 cells injury [5]: remarkable neuroprotective effects at 5 and 10 µM | IC50 (eeAChE [6]): 1300 ± 20 nM
